For 1 molecule, remaining activity results are on record in paper PMC4979471 (Cell Death Discovery, 2015).

What all share (assay): Kinase selectivity, P33-radiolabeled assay
What all share (type): biochemical
What all share (conditions): 10 μM ATP

The target in one assay is T1, TRKC (Homo sapiens, UniProt Q16288).
T1 construct: purchased Reaction Biology Corp
In short, it runs like this:
(§1)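 Percent residual kinase activity versus DMSO is reported. Conditions: compound at 10 μM, ATP at 10 μM, n = 2.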

The target of another assay is T2, STK22D/TSSK1 (Homo sapiens, UniProt Q9BXA7).
T2 construct: purchased Reaction Biology Corp
T2 sequence (Q9BXA7 1-367): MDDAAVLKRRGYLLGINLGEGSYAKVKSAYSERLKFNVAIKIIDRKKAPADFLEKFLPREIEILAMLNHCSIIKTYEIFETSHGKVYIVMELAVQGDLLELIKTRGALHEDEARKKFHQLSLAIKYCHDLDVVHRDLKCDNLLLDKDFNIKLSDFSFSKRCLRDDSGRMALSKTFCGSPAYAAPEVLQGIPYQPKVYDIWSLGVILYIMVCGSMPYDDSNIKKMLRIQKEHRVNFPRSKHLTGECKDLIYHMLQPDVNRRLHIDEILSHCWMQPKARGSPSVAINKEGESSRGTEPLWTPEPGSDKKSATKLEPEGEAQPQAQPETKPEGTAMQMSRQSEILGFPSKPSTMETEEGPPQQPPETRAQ
In short, it runs like this:
as §1

Another assay deals with T3, EPHB1 (Homo sapiens, UniProt P54762).
T3 construct: purchased Reaction Biology Corp
T3 sequence (P54762 18-984): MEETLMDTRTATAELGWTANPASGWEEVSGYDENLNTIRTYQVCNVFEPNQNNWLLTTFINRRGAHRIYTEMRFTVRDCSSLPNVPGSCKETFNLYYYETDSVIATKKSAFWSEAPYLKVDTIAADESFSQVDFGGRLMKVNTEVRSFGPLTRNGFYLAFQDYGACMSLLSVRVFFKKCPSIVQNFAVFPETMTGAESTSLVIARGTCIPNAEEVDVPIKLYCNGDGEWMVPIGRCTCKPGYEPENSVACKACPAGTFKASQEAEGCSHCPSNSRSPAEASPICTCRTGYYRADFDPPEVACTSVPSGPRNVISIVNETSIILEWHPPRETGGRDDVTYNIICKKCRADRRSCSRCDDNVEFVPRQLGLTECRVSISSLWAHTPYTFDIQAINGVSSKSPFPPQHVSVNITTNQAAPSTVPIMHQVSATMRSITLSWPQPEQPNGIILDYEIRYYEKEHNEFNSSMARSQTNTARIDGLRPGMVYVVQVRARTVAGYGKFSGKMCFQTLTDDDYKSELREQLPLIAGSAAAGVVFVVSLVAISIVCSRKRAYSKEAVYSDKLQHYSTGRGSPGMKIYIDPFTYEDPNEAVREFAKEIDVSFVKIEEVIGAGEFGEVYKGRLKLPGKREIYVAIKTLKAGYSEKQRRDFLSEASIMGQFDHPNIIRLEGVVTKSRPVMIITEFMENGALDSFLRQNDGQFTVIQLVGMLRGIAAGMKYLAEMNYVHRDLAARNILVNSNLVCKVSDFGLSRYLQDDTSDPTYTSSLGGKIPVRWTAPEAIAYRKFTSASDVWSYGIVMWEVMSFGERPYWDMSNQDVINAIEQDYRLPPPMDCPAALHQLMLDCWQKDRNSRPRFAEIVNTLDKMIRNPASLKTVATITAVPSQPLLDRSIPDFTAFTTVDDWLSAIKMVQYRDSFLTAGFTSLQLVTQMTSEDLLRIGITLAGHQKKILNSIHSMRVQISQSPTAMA
Summed up:
as §1

The next assay deals with T4, TYK2 (Homo sapiens, UniProt P29597).
T4 construct: purchased Reaction Biology Corp
T4 sequence (P29597 whole entry): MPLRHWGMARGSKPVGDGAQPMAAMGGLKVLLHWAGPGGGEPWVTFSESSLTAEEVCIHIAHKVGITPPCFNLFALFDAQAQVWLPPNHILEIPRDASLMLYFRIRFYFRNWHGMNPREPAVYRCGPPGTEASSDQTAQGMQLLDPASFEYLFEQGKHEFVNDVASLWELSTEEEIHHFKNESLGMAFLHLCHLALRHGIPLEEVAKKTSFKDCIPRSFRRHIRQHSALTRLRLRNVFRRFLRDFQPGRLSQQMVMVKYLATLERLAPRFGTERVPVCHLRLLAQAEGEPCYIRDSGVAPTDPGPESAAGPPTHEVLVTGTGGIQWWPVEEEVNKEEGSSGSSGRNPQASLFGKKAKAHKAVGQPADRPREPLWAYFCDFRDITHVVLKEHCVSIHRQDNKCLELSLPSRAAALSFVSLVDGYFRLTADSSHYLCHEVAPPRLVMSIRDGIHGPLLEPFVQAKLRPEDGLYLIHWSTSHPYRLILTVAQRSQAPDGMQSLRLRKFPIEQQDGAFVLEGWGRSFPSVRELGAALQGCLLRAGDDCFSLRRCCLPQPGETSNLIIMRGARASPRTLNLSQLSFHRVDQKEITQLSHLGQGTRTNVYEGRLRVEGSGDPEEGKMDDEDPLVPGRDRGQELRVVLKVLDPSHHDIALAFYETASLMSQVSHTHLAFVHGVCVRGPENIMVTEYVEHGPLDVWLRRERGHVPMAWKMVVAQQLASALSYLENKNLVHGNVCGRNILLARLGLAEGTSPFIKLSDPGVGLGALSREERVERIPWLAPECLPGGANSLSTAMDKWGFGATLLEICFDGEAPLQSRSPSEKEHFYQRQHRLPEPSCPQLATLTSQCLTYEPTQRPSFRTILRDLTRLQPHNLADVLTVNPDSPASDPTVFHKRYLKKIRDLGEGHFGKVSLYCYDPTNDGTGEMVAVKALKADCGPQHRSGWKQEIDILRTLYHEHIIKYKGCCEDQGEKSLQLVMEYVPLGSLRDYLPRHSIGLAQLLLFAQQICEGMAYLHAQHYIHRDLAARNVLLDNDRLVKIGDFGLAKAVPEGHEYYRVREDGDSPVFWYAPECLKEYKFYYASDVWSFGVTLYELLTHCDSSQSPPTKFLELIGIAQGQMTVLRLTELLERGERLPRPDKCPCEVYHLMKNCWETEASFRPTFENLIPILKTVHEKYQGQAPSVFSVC
In short, it runs like this: as §1

The target of a further assay is T5, ULK1 (Homo sapiens, UniProt O75385).
T5 construct: purchased Reaction Biology Corp
T5 sequence (O75385 1-1050): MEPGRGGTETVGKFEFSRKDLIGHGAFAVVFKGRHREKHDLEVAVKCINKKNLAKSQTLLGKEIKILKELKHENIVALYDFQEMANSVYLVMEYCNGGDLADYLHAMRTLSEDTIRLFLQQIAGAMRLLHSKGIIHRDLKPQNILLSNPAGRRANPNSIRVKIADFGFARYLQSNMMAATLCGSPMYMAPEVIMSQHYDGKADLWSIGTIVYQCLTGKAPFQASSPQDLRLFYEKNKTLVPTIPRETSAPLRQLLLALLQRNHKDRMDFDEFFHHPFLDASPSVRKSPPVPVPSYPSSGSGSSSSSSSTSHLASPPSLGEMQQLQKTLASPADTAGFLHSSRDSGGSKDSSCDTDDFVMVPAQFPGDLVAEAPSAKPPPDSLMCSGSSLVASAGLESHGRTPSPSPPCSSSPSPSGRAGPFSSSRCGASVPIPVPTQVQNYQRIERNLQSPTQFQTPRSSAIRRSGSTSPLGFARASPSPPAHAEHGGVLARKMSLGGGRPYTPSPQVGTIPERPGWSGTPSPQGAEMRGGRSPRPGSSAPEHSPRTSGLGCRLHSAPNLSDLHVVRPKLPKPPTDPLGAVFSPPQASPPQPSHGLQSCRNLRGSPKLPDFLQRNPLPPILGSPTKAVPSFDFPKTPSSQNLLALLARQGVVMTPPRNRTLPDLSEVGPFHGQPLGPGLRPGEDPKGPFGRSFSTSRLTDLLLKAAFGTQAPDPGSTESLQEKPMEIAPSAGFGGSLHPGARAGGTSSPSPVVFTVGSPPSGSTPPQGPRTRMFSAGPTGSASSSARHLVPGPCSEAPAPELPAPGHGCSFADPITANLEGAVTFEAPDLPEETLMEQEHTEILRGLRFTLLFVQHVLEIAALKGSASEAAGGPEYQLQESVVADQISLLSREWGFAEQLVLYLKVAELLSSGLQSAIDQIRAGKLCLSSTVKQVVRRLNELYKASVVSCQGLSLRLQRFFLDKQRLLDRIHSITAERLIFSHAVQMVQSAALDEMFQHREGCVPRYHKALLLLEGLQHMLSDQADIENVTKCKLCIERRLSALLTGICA
In short, it runs like this: as §1

The target of another assay is T6, DAPK2 (Homo sapiens, UniProt Q9UIK4).
T6 construct: purchased Reaction Biology Corp
T6 sequence (Q9UIK4 whole entry): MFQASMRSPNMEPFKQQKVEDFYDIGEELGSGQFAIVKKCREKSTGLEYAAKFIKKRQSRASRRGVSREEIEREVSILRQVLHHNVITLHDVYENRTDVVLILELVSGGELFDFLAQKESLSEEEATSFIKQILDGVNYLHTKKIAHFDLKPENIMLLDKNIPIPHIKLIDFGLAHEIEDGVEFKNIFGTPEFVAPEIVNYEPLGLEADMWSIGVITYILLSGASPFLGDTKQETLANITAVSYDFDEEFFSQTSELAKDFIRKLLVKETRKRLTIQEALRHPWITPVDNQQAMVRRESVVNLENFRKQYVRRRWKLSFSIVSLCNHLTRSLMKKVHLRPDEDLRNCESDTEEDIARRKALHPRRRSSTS
In short, it runs like this: as §1

The next assay deals with T7, FLT1/VEGFR1 (Homo sapiens, UniProt P17948).
T7 construct: purchased Reaction Biology Corp
T7 sequence (P17948 27-1338): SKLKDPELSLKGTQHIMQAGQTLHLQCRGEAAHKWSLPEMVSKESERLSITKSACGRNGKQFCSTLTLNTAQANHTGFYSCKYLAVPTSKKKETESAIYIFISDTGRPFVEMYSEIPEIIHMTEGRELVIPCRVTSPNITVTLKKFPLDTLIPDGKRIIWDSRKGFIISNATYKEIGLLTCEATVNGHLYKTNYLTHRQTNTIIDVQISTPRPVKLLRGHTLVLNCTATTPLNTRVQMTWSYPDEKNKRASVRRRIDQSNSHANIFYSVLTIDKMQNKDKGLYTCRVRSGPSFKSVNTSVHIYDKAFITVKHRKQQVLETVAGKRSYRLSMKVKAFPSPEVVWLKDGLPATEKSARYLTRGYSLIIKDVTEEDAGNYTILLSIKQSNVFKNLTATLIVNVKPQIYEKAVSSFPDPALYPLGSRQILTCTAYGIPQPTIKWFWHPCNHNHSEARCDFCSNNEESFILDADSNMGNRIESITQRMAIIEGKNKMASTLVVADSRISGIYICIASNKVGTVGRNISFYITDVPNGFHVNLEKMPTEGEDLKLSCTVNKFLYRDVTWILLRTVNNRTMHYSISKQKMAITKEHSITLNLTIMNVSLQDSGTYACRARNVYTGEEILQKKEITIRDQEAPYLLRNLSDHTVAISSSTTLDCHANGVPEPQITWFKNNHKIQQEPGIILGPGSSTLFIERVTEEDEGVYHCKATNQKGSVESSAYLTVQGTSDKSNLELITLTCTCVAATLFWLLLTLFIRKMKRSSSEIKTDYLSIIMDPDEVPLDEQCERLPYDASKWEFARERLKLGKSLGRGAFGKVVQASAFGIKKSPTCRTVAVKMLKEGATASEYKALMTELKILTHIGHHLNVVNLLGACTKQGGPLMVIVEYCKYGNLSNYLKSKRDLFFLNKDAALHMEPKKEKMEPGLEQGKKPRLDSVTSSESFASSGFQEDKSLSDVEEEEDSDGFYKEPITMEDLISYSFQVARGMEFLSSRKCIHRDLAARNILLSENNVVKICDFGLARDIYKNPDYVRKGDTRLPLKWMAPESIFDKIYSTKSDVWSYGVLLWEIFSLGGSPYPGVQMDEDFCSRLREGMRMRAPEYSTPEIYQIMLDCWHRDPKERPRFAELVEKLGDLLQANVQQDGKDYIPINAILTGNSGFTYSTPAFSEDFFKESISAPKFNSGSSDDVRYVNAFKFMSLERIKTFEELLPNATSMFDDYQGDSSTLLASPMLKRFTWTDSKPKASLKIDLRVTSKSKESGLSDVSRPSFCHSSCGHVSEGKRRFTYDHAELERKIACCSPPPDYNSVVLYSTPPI
Summed up: as §1

[1] abbreviates: read-out: % Enzyme Activity (relative to DMSO controls) AVG.
[2] abbreviates: read-out: % Enzyme Activity (relative to DMSO controls) Data 1.
[3] abbreviates: read-out: % Enzyme Activity (relative to DMSO controls) Data 2.

The structures appear in SMILES notation. Where two headings read alike, the source gives them in different places.

T1 sequence (Q16288 32-839): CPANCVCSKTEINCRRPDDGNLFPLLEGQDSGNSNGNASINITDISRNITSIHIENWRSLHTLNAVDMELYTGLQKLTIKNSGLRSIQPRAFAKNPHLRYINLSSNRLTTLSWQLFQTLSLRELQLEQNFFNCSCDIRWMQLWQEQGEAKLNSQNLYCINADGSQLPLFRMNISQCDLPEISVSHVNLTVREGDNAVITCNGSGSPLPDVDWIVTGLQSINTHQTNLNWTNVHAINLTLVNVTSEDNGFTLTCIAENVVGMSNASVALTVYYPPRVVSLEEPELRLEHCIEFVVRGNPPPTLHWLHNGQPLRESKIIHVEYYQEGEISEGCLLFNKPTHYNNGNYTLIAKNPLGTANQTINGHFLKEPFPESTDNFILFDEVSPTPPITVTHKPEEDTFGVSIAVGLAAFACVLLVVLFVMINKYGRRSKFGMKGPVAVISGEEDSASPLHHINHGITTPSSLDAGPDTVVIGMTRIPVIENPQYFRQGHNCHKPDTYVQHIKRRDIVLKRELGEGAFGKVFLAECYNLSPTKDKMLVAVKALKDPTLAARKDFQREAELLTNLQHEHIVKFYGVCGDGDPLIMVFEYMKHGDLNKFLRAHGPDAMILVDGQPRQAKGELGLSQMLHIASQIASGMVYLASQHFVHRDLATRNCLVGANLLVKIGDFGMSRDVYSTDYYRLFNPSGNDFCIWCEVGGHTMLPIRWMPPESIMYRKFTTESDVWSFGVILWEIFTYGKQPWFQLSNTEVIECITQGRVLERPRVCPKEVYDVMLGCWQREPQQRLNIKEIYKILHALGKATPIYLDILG

For `CC(C)(C)C(=O)N1N=CC[C@H]1c1ccccc1` [GSK′963], the remaining activity at 10 µM at TRKC (setting [1]) was 99.2%; on TRKC (setting [2]) it was 100%; at TRKC (setting [3]), 98%; on STK22D/TSSK1 (setting [1]), 110%; at STK22D/TSSK1 (setting [2]), 108%; on STK22D/TSSK1 (setting [3]), 112%. In addition, the remaining activity at 10 µM came out at 99.4% at EPHB1 (setting [1]); 98.8% at EPHB1 (setting [2]); 100% at EPHB1 (setting [3]); 103% on TYK2 (setting [1]); 104% at TYK2 (setting [2]); 101% at TYK2 (setting [3]). Further, the remaining activity at 10 µM amounted to 106% on ULK1 (setting [1]); 106% at ULK1 (setting [2]); 106% on ULK1 (setting [3]); 105% on DAPK2 (setting [1]); 104% on DAPK2 (setting [2]); 105% on DAPK2 (setting [3]). Besides, the results for the remaining activity at 10 µM at FLT1/VEGFR1 (setting [1]), on FLT1/VEGFR1 (setting [2]) and at FLT1/VEGFR1 (setting [3]) were 107%, 106% and 107%, respectively.
